This is an account of results in patent publication US20090221829A1 (priority 2005, published 2009).

The test system of data set [1] is Candida albicans(KCTC 1940), Aspergillus niger (ATCC 9642) and Saccharomyces cerevisiae. The data set can be described thus: Relative antifungal activity by agar dilution method (vs Miconazole).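 Note: scores 5 to 7 mean a lower fungicidal concentration than Miconazole so higher is more potent.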 Type of data set: cell-based. From the text:
Novel compounds represented by the above chemical formula (I), and the relative activities in accordance with the agar dilution method in Sabouraud dextrose agar media, Czapek agar media and Yeast Extract-Peptone-Dextrose agar media for Candida albicans(KCTC 1940), Aspergillus niger (ATCC 9642) and Saccharomyces cerevisiae are described respectively in following Table 1.

The subject of the next data set is various kinds of Candida. The data set can be described thus: MIC (Minimal Inhibitory Concentration) data. The following applies: unit assumed. In kind it is cell-based.
The mark [2] stands for this setting: agar dilution method, fungicidal concentration relative to control drug Miconazole (=4).
Setting [3] is: antifungal activity relative to Miconazole, agar dilution.

Where a name gives a salt, the structure may show the parent alone.

In turn, `COc1cc2c(cc1OC)C(CCc1ccc(C(C)(C)C)cc1)=[N+](Cc1cccc(OC)c1OCc1ccc(C(F)(F)F)cc1)CC2` (as salt: chloride) [Compound No. 132, 1-(2-(4-t-butylphenyl))ethyl-2-(2-(4-trifluoromethylbenzyloxy)-3-methoxyphenyl)methyl-3,4-dihydro-6,7-dimethoxy isoquinolinium chloride] had a melting point of 60 °C.

On to `COc1cc2c(cc1OC)C(CCc1ccc(C(C)(C)C)cc1)=[N+](Cc1cccc(OC)c1OCc1c(F)cccc1Cl)CC2` (as salt: chloride) [Compound No. 133, 1-(2-(4-t-butylphenyl))ethyl-2-(2-(2-chloro-6-fluorobenzyloxy)-3-methoxyphenyl)methyl-3,4-dihydro-6,7-dimethoxyisoquinolinium chloride], for which the melting point came out at 63 °C.

Turning to `COc1cc2c(cc1OC)C(CCc1ccc(C(C)(C)C)cc1)=[N+](Cc1cccc(OC)c1OCc1c(F)c(F)c(C(F)(F)F)c(F)c1F)CC2` (as salt: chloride) [Compound No. 135, 1-(2-(4-t-butylphenyl))ethyl-2-(2-(2,3,5,6-tetrafluoro-4-trifluoromethylbenzyloxy)-3-methoxyphenyl)methyl-3,4-dihydro-6,7-dimethoxy isoquinolinium chloride], the melting point is 140 °C.

For the compound `COc1cc2cc[n+](Cc3cccc(OC)c3OCc3ccc(C(F)(F)F)cc3)c(CCc3ccc(C(C)(C)C)cc3)c2cc1OC` (as salt: chloride) [Compound No. 149, 1-(2-(4-t-butylphenyl))ethyl-2-(2-(4-trifluoromethylbenzyloxy)-3-methoxyphenyl)methyl-6,7-dimethoxyisoquinolinium chloride], the melting point is 110 °C.

The compound `CCCCCCCC1=[N+](Cc2ccccc2F)CCc2cc(OC)c(OC)cc21.[Cl-]` [Compound No. 11, 1-n-heptyl-2-(2-fluorophenyl)methyl-3,4-dihydro-6,7-dimethoxyisoquinolinium chloride] came in with a melting point of 112 °C. Further, the “Relative Activity” value in data set [1] (setting [2]) turned out to be 4.

The compound `COc1cc2c(cc1OC)C(c1cc(F)cc(F)c1)=[N+](Cc1ccccc1F)CC2.[Cl-]` [Compound No. 18, 1-(3,5-difluorophenyl)-2-(2-fluorophenyl)methyl-3,4-dihydro-6,7-dimethoxyisoquinolinium chloride] registered a melting point of 118 °C. For the same compound, the “Relative Activity” value in data set [1] (setting [2]) amounted to 6.

Consider `COc1cc2c(cc1OC)C(c1ccc(C(C)(C)C)cc1)=[N+](Cc1ccccc1F)CC2.[Cl-]` [Compound No. 22, 1-(4-t-butylphenyl)-2-(2-fluorophenyl)methyl-3,4-dihydro-6,7-dimethoxyisoquinolinium chloride], for which the melting point turned out to be 125 °C. In data set [1] (setting [2]), the “Relative Activity” value came to 6.

In turn, `COc1cc2c(cc1OC)C(Cc1ccc(Cl)cc1Cl)=[N+](Cc1ccccc1F)CC2.[Cl-]` [Compound No. 25, 1-(2,4-dichlorophenyl)methyl-2-(2-fluorophenyl)methyl-3,4-dihydro-6,7-dimethoxyisoquinolinium chloride] registered a melting point of 182 °C. For the same compound, in data set [1] (setting [2]), the “Relative Activity” value worked out at 6.

Regarding `COc1cc2c(cc1OC)C(C)=[N+](Cc1ccc(F)c(F)c1)CC2.[Cl-]` [Compound No. 39, 1-methyl-2-(3,4-difluorophenyl)methyl-3,4-dihydro-6,7-dimethoxyisoquinolinium chloride], the melting point stood at 88 °C. Further, the “Relative Activity” value in data set [1] (setting [2]) is listed as 6.

Compound `COc1cc2c(cc1OC)C(c1ccc(C(C)(C)C)cc1)=[N+](Cc1ccc(F)c(F)c1)CC2.[Cl-]` [Compound No. 48, 1-(4-t-butylphenyl)-2-(3,4-difluorophenyl)methyl-3,4-dihydro-6,7-dimethoxyisoquinolinium chloride] gave a melting point of 97 °C. In addition, the “Relative Activity” value in data set [1] (setting [2]) is 6.

The compound `COc1cc2c(cc1OC)C(c1ccc(C(C)(C)C)cc1)=[N+](Cc1ccccc1Cl)CC2.[Cl-]` [Compound No. 55, 1-(4-t-butylphenyl)-2-(2-chlorophenyl)methyl-3,4-dihydro-6,7-dimethoxyisoquinolinium chloride] displayed a melting point of 117 °C. For the same compound, the “Relative Activity” value in data set [1] (setting [2]) came out at 6.

On to `CCCCCC1=[N+](Cc2c(F)cccc2F)CCc2cc(OC)c(OC)cc21.[Cl-]` [Compound No. 57, 1-n-pentyl-2-(2,6-difluorophenyl)methyl-3,4-dihydro-6,7-dimethoxyisoquinolinium chloride], for which the melting point came out at 196 °C. The “Relative Activity” value in data set [1] (setting [2]) came to 6.

For `CCCCCCCCCCCCCCCC1=[N+](Cc2c(F)cccc2F)CCc2cc(OC)c(OC)cc21.[Cl-]` [Compound No. 60, 1-n-pentadecyl-2-(2,6-difluorophenyl)methyl-3,4-dihydro-6,7-dimethoxyisoquinolinium chloride], the melting point was 104 °C. Further, the “Relative Activity” value in data set [1] (setting [2]) was found to be 1.

The compound `COc1cc2c(cc1OC)C(c1ccccc1F)=[N+](Cc1c(F)cccc1F)CC2.[Cl-]` [Compound No. 62, 1-(2-fluorophenyl)-2-(2,6-difluorophenyl)methyl-3,4-dihydro-6,7-dimethoxyisoquinolinium chloride] yielded a melting point of 79 °C. Besides, the “Relative Activity” value in data set [1] (setting [2]) was determined as 6.

For `COc1ccc2c(c1)CC[N+](Cc1ccccc1F)=C2C(C)C.[Cl-]` [Compound No. 83, 1-i-propyl-2-(2-fluorophenyl)methyl-3,4-dihydro-6-methoxyisoquinolinium chloride], the melting point was found to be 102 °C. Besides, in data set [1] (setting [2]), the “Relative Activity” value was 6.

In the case of `CC1=[N+](Cc2ccc(F)c(F)c2)CCc2cc3c(cc21)OCO3.[Cl-]` [Compound No. 111, 1-methyl-2-(3,4-difluorophenyl)methyl-3,4-dihydro-6,7-methylenedioxyisoquinolinium chloride], the melting point is 88 °C. Further, the “Relative Activity” value in data set [1] (setting [2]) is listed as 6.

`CCCCCCC1=[N+](Cc2ccc(C(C)(C)C)cc2)CCc2cc(OC)c(OC)cc21.[Cl-]` [Compound No. 126, 1-hexyl-2-(4-t-butylphenyl)methyl-3,4-dihydro-6,7-dimethoxy isoquinolinium chloride]: the melting point came out at 34 °C. For the same compound, the “Relative Activity” value in data set [1] (setting [2]) is 4.

Compound `CCCCCCCCCCCC1=[N+](Cc2ccc(C(C)(C)C)cc2)CCc2cc(OC)c(OC)cc21.[Cl-]` [Compound No. 127, 1-undecyl-2-(4-t-butylphenyl)methyl-3,4-dihydro-6,7-dimethoxy isoquinolinium chloride] came in with a melting point of 85 °C. Besides, the “Relative Activity” value in data set [1] (setting [2]) was determined as 1. The compound also yielded a minimum inhibitory concentration (MIC) against various kinds of Candida (C. albicans ATCC 11651) of 0.78 µg/mL. Moreover, in the data set with various kinds of Candida (C. albicans ATCC 28838), the minimum inhibitory concentration (MIC) was 1.56 µg/mL. This compound also showed an MIC in the data set with various kinds of Candida (C. albicans IFO 1385) of 0.78 µg/mL. The compound also gave an MIC in the data set on various kinds of Candida (C. albicans OY-003) of 1.56 µg/mL. The compound also registered an MIC in the data set with various kinds of Candida (C. albicans OY-019) of 0.78 µg/mL. For the same compound, the MIC in the data set on various kinds of Candida (C. albicans U.K) is 1.56 µg/mL. The compound also yielded an MIC against various kinds of Candida (C. glabrata) of 1.56 µg/mL. For the same compound, it took 1.56 µg/mL to inhibit growth in the data set with various kinds of Candida (C. glulliermondi) (MIC). The compound also had an MIC in the data set with various kinds of Candida (C. krusei (KCTC7273)) of 1.56 µg/mL. In the data set with various kinds of Candida (C. parapsilosis), this compound registered an MIC of 1.56 µg/mL.

Turning to `CCCCCCCCCCCCCCCC1=[N+](Cc2ccc(C(C)(C)C)cc2)CCc2cc(OC)c(OC)cc21.[Cl-]` [Compound No. 128, 1-pentadecyl-2-(4-t-butylphenyl)methyl-3,4-dihydro-6,7-dimethoxy isoquinolinium chloride], the melting point amounted to 166 °C. The “Relative Activity” value in data set [1] (setting [2]) worked out at 1.

The compound `COc1cc2c(cc1OC)C(C)=[N+](Cc1cccc(OC)c1OCc1ccc(C(C)(C)C)cc1)CC2.[Cl-]` [Compound No. 138, 1-methyl-2-(2-(4-t-butylbenzyloxy)-3-methoxyphenyl)methyl-3,4-dihydro-6,7-dimethoxy isoquinolinium chloride] had a melting point of 105 °C. In addition, the “Relative Activity” value in data set [1] (setting [2]) was 6.

On to `CCCc1c2cc(OC)c(OC)cc2cc[n+]1Cc1c(F)cccc1Cl.[Cl-]` [Compound No. 139, 1-propyl-2-(2-chloro-6-fluorophenyl)methyl-6,7-dimethoxy-isoquinolinium chloride], for which the melting point turned out to be 78 °C. Besides, the “Relative Activity” value in data set [1] (setting [3]) amounted to 6.

With `COc1cc2cc[n+](Cc3c(F)cccc3Cl)c(C)c2cc1OC.[Cl-]` [Compound No. 140, 1-methyl-2-(2-chloro-6-fluorophenyl)methyl-6,7-dimethoxyisoquinolinium chloride], the melting point was 96 °C. Moreover, in data set [1] (setting [3]), the “Relative Activity” value amounted to 6.

`COc1cc2cc[n+](Cc3ccc(C(C)(C)C)cc3)c(C)c2cc1OC.[Cl-]` [Compound No. 143, 1-methyl-2-(4-t-butylphenyl)methyl-6,7-dimethoxyisoquinolinium chloride] came in with a melting point of 350 °C. Also, in data set [1] (setting [3]), the “Relative Activity” value was 6.

On to `CCCc1c2cc(OC)c(OC)cc2cc[n+]1Cc1ccc(C(C)(C)C)cc1.[Cl-]` [Compound No. 144, 1-propyl-2-(4-t-butylphenyl)methyl-6,7-dimethoxyisoquinolinium chloride], for which the melting point turned out to be 79 °C. Moreover, the “Relative Activity” value in data set [1] (setting [3]) is 6.

With `CCCCCCc1c2cc(OC)c(OC)cc2cc[n+]1Cc1ccc(C(C)(C)C)cc1.[Cl-]` [Compound No. 145, 1-hexyl-2-(4-t-butylphenyl)methyl-6,7-dimethoxyisoquinolinium chloride], the melting point was 105 °C. Further, in data set [1] (setting [3]), the “Relative Activity” value turned out to be 4.

For the compound `CCCCCCCCCCCCCCCc1c2cc(OC)c(OC)cc2cc[n+]1Cc1ccc(C(C)(C)C)cc1.[Cl-]` [Compound No. 147, 1-pentadecyl-2-(4-t-butylphenyl)methyl-6,7-dimethoxyisoquinolinium chloride], the melting point stood at 120 °C. Further, the “Relative Activity” value in data set [1] (setting [3]) is listed as 1.
